In patent publication US6407064B2, “Aminoalcohol derivative and medicament comprising the same” (Seikagaku Corporation, priority 1999, dated 2002):

Experiments:
[1] = tested on: cultured neurocytes of rat fetal cerebral cortex; experiment: Activity of accelerating synapse formation (intracellular calcium ion level, fura-2); format: cell-based; details: relative value, L-PDMP regarded as 100; compound 20 μM; assay on 10th day of culture
Experimental: The activity of accelerating synapse formation was determined by measuring change of an intracellular calcium ion level resulted from the synchronized spontaneous ignition of neurocytes which is considered to show synapse activities by means of an intracellular calcium ion multipoint observation system using a calcium ion fluorescence indicator, fura-2.
Concretely, rat fetuses at the 18th day of pregnancy were taken out from Wistar rats (available from Japan SLC), and cerebral cortices of the fetuses were taken out and cut into small pieces. After having been treated with papain (manufactured by Worthington Biochemical) at 37° C. for 30 minutes, the pieces were suspended into a Dulbecco modified Eagle's medium containing 5% bovine neonatal serum and 5% equine serum and the cortices were dissociated into single cells with Cell Striner (70 μm, Falcon). Then, the cells were inoculated into a flexiperm plate coated with 0.5% polyethyleneimine (1.0×10^6 cells/500 μl/well), and was cultured in 7% CO2 incubator at 37° C. The medium was exchanged on 2nd, 5th, and 8th days after the culture had been started. The activity of the compound of the present invention was measured using the primary culture. The compound was added at the time when the medium was exchanged and the concentration of the compound was maintained to be 20 μM. Assay was carried out on 10th day after the culture had been started.
(2) Measurement of Activity of Accelerating Synapse Formation
Concretely, after the medium of each well where cells were cultured was substituted with basic salt solution (BSS), 3 μl of a DMSO solution (1 mg/ml) of a calcium ion fluorescence indicator fura-2 was added, and the whole was kept at 37° C. for 1 hour.

[2] = tested on: enzyme for ganglioside GM3 synthesis, mouse B16 melanoma cell; experiment: Activity of enzyme for ganglioside GM3 synthesis (14C-Gal incorporated in total lipid fraction); format: cell-based; details: relative value, control regarded as 100; test compound 24 μM, 24 hours; 14C-Gal incorporation
Experimental: The gangliosides produced by mouse B16 melanoma cell are almost composed of ganglioside GM3. Therefore, the activity of the enzyme for ganglioside GM3 synthesis can be determined conveniently by measuring the amount of ^14C-Gal incorporated in a total lipid-extracted fraction through a liquid layer partition method.
A liquid where the cells of mouse B16 melanoma were suspended was prepared with Dulbecco modified Eagle's medium containing 10% bovine fetal serum, inoculated into a 12-well plate in an amount of 2.0×10^5 cells/ml/well, and cultured in 5% CO2 incubator at 37° C. The treatment with a test compound (24 μM) and the addition of ^14C-Gal (22.2 kBq/11.7 nmol/6 μl/well) were started through the exchange of total amount of the medium 24 hours after the culture was started. Twenty-four hours after the treatment with the test compound was started, the culture mixture was treated with PBS containing 0.02% EDTA and PBS containing 0.25% trypsin successively to recover the cells.
Then, a mixed solvent of chloroform:methanol=2:1 (3 ml) was added to the cell pellet and, after the subjection to an ultrasonication for 30 minutes, the supernatant was recovered. Furthermore, a mixed solvent of chloroform:methanol=1:1 (3 ml) was added to the residual pellet after the recovery of the supernatant, and a similar operation was carried out. The resulting supernatant was combined with the first supernatant and the whole was evaporated to dryness under a nitrogen stream. A desalinated water (1.0 ml) was added to the total lipid-extracted fraction. After having been subjected to an ultrasonication for 1 minute, the mixture was transferred into a dialysis tube and dialyzed against water for 2 days. The sample after the dialysis was transferred into a vial for liquid scintillation counter and, after the addition of scintillator, the activity of incorporating ^14C-Gal was measured on scintillation counter.
The values of activity of the compounds of the present invention are shown as relative values obtained by calculation on the basis that the value of a control (a group where no test compound was added) is regarded as 100 in Table 3 below.

[3] = Tissue distribution: concentration in plasma and skeletal muscle after oral or intravenous administration; format: in vivo; details: rat
Experimental: Tissue distribution of the compound in Example 19 was compared with that of L-PDMP using 6-8 week old Wistar male rats.
As oral administration, a physiological saline containing 20 mg/ml of a test substance was administered at 100 mg/5 ml/kg, and as intravenous administration, a physiological saline containing 1.25 mg/ml of a test substance was administered to the cervical vein at 5 mg/4 ml/kg.
After the predetermined time had passed since the above administration, blood was collected from the rat cervical vein, a 3.8% sodium citrate solution was added thereto at 1/10 volume, followed by centrifugation at 3,000 rpm for 15 minutes to obtain the supernatant as a plasma sample.
Also, after the predetermined time had passed since the above administration, the skeletal muscle was collected from the femoral region of both hind legs, ice water was added thereto at 4 ml/g tissue, followed by homogenization, and the same volume of acetonitrile was added thereto, followed by vigorously stirring and centrifugation at 4000 rpm for 10 minutes to obtain the supernatant as a skeletal muscle sample.
The plasma and skeletal muscle samples were extracted by OASIS HLB solid phase extraction column (manufactured by Waters), and the concentration of the test compound in the plasma and the muscle was determined by high performance liquid chromatography (HPLC). The conditions of HPLC analysis were as follows:
Detection wavelength: 218 nm
Column: DAISO PACK SP-120-5-ODS-BP
Column temperature: 40° C.
Mobile phase: 0.1% trifluoroacetic acid solution:methanol=36:64 (for L-PDMP); 0.1% trifluoroacetic acid solution:methanol=48:52 (for the compound in Example 19)
The concentrations in the plasma and skeletal muscle of the compound in Example 19 and L-PDMP after the predetermined time has been passed since the administration of the test compounds are shown in Tables 4-6 below. The values are the mean values of at least two test samples. Specifically, Table 4, Table 5, and Table 6 show the concentrations in the plasma after the oral administration of 100 mg/kg, the concentrations in the skeletal muscle after the oral administration of 100 mg/kg, and the concentrations in the plasma after the intravenous administration of 5 mg/kg, respectively.

Compound | Activity of synapse formation [1] | also measured
CCOC(=O)CCCCC(=O)N[C@@H](CN1CCOCC1)[C@@H](O)c1ccccc1 [Example 6, (1S,2S)-2-ethoxyhexanedioylamino-3-morpholino-1-phenyl-1-propanol] | 87.5 | 
CCCCCCNC(=O)C1CCC(C(=O)N[C@@H](CN2CCOCC2)[C@@H](O)c2ccccc2)CC1 (stereo partly drawn) [Example 17, (1S,2S)-2-(cyclohexane-4-hexylcarbamoyl-1-carbonyl)amino-3-morpholino-1-phenyl-1-propanol] | 90.0 | 
CCCCOC(=O)NCC(=O)N[C@@H](CN1CCOCC1)[C@@H](O)c1ccccc1 [Example 3] |  | Activity of accelerating glycolipid biosynthesis (Test Example 2) [2]: 98.6
O=C(CNC(=O)OCc1ccccc1)N[C@@H](CN1CCOCC1)[C@@H](O)c1ccccc1 [Example 1] |  | Activity of accelerating glycolipid biosynthesis (Test Example 2) [2]: 85.2
N[C@@H](CCCCNC(=O)CCCCC(=O)N[C@@H](CN1CCOCC1)[C@@H](O)c1ccccc1)C(=O)O [Example 26, (1S,2S,12S)-2-(12-amino-7-aza-6-oxo-12-carboxydodecanoyl)amino-3-morpholino-1-phenyl-1-propanol] | 95.0 | 
(1S,2S)-2-(5-hexylcarbamoyl)pentanoylamino-3-morpholino-1-phenyl-1-propanol [Example 13] | 95.0 | 
(1S,2S)-2-(5-cyclohexylcarbamoyl)pentanoylamino-3-morpholino-1-phenyl-1-propanol [Example 12] | 80.0 | 
CCCCNC(=O)CCCCCCCCC(=O)N[C@@H](CN1CCOCC1)[C@@H](O)c1ccccc1 [Example 14, (1S,2S)-2-(9-butylcarbamoyl)nonanoylamino-3-morpholino-1-phenyl-1-propanol] | 94.2 | 
CCCCCC(=O)NCC(=O)N[C@@H](CN1CCOCC1)[C@@H](O)c1ccccc1 [Example 4, (1S,2S)-2-(n-hexanoyl)glycylamino-3-morpholino-1-phenyl-1-propanol] |  | Activity of accelerating glycolipid biosynthesis (Test Example 2) [2]: 71.3
N[C@@H](CCCCNC(=O)CCCCCCCCC(=O)N[C@@H](CN1CCOCC1)[C@@H](O)c1ccccc1)C(=O)O [Example 27, (1S,2S,16S)-2-(16-amino-11-aza-10-oxo-16-carboxyhexadecanoyl)amino-3-morpholino-1-phenyl-1-propanol] | 100.0 | 
CC(=O)NC1C(O)CC(CCCCCCCCC(=O)N[C@@H](CN2CCOCC2)[C@@H](O)c2ccccc2)(C(=O)O)OC1C(O)C(O)CO (stereo partly drawn) [Example 28, (1S,2S)-2-(9-sialylnonanoyl)amino-3-morpholino-1-phenyl-1-propanol] | 95.8 | 
CCCCOCCOCC(=O)N[C@@H](CN1CCOCC1)[C@@H](O)c1ccccc1 [Example 19, (1S,2S)-2-(3,6-dioxadecanoyl)amino-3-morpholino-1-phenyl-1-propanol] | 90.8 | concentration at 10 min ([3]; male, Wistar, plasma, intravenous administration of 5 mg/kg, 10 min): 2240 ng/mL; concentration at 25 min ([3]; male, Wistar, plasma, intravenous administration of 5 mg/kg, 25 min): 560 ng/mL; concentration at 5 min ([3]; male, Wistar, plasma, oral administration of 100 mg/kg, 5 min): 2620 ng/mL; concentration at 15 min ([3]; male, Wistar, plasma, oral administration of 100 mg/kg, 15 min): 8660 ng/mL; concentration at 30 min ([3]; male, Wistar, plasma, oral administration of 100 mg/kg, 30 min): 6140 ng/mL; concentration at 60 min ([3]; male, Wistar, plasma, oral administration of 100 mg/kg, 60 min): 950 ng/mL; retention in plasma and skeletal muscle compared with L-PDMP ([3]; in words): kept in the plasma and skeletal muscle for a longer time; tissue distribution compared with L-PDMP ([3]; in words): higher tissue distribution than L-PDMP
CC(=O)CCCCCC(=O)N[C@@H](CN1CCOCC1)[C@@H](O)c1ccccc1 [Example 22, (1S,2S)-2-(7-oxooctanoyl)amino-3-morpholino-1-phenyl-1-propanol] | 88.3 | 
CCCCCCOCCOCC(=O)N[C@@H](CN1CCOCC1)[C@@H](O)c1ccccc1 [Example 21, (1S,2S)-2-(3,6-dioxadodecanoyl)amino-3-morpholino-1-phenyl-1-propanol] | 97.5 | 
CCCCCCNC(=O)CCCCCCCCC(=O)N[C@@H](CN1CCOCC1)[C@@H](O)c1ccccc1 [Example 15, (1S,2S)-2-(9-hexylcarbamoyl)nonanoylamino-3-morpholino-1-phenyl-1-propanol] | 90.0 | 
CCNC(=O)CCCCC(=O)N[C@@H](CN1CCOCC1)[C@@H](O)c1ccccc1 [Example 11, (1S,2S)-2-(5-ethylcarbamoyl)pentanoylamino-3-morpholino-1-phenyl-1-propanol] | 93.3 | 
O=C(CCCCCCCCCO)N[C@@H](CN1CCOCC1)[C@@H](O)c1ccccc1 [Example 23, (1S,2S) -2-(10-hydroxydecanoyl) amino-3-morpholino-1-phenyl-1-propanol] | 85.8 | 
O=C(CNC(=O)OCc1ccccc1)NCC(=O)N[C@@H](CN1CCOCC1)[C@@H](O)c1ccccc1 [Example 2] |  | Activity of accelerating glycolipid biosynthesis (Test Example 2) [2]: 130.9
CCCCN(C)C(=O)CCC(=O)N[C@@H](CN1CCOCC1)[C@@H](O)c1ccccc1 [Example 10, (1S,2S)-2-(N-butyl-N-methylamino)butanedioylamino-3-morpholino-1-phenyl-1-propanol] | 91.7 | 
